Experiments:
Pseudomonas aeruginosa [1] = experiment: antimicrobial activity against Pseudomonas aeruginosa
Pseudomonas aeruginosa [2] = experiment: Antimicrobial activity against Pseudomonas aeruginosa relative to peptide Bac2A RLARIVVIRVAR sequence

Compound | pIC50 (Pseudomonas aeruginosa [1]) | Ratio IC50 (Pseudomonas aeruginosa [2])
N=C(N)NCCC[C@H](NC(=O)[C@H](CCCCN)NC(=O)[C@H](CCCNC(=N)N)NC(=O)[C@@H](N)CCCNC(=N)N)C(=O)N[C@@H](Cc1c[nH]c2ccccc12)C(=O)N[C@@H](Cc1c[nH]c2ccccc12)C(=O)N[C@@H](Cc1c[nH]c2ccccc12)C(=O)N[C@@H](Cc1c[nH]c2ccccc12)C(=O)N[C@@H](Cc1c[nH]c2ccccc12)C(=O)O | 6.37 | 0.43
N=C(N)NCCC[C@H](NC(=O)[C@H](CCCNC(=N)N)NC(=O)[C@@H](N)CCCNC(=N)N)C(=O)N[C@@H](Cc1c[nH]c2ccccc12)C(=O)N[C@@H](Cc1c[nH]c2ccccc12)C(=O)N[C@@H](Cc1c[nH]c2ccccc12)C(=O)N[C@@H](Cc1c[nH]c2ccccc12)C(=O)N[C@@H](Cc1c[nH]c2ccccc12)C(=O)N[C@@H](Cc1c[nH]c2ccccc12)C(=O)O | 5.74 | 1.82
H-IRRRKWWWW-OH | 6.68 | 0.21
H-IRRRWWWIV-OH | 6.64 | 0.23
H-KKRWLWWWR-OH | 6.52 | 0.3
H-KRKIWWWIR-OH | 6.55 | 0.28
H-KRRRIWWWK-OH | 6.4 | 0.4
H-KRWWKWWRR-OH | 6.89 | 0.13
H-KRWWWWWKR-OH | 6.66 | 0.22
H-KWWKIWWKR-OH | 6.7 | 0.2
H-LRFILWWKR-OH | 6.06 | 0.88
H-RHWKTWWKR-OH | 6.02 | 0.95
H-RIKRWWWWR-OH | 6.51 | 0.31
H-RIKVIWWWR-OH | 6.29 | 0.51
H-RKRLKWWIY-OH | 6.74 | 0.18
H-RKWWRWWRW-OH | 6.51 | 0.31
H-RRIWRWWWW-OH | 6.17 | 0.68
H-RWILWWWRI-OH | 4.6 | 25
H-RWRRKWWWW-OH | 6.41 | 0.39
H-RWWRKWWIR-OH | 6.62 | 0.24
H-TRKVWWWRW-OH | 6.12 | 0.76
H-WHGVRWWKW-OH | 5.6 | 2.5
H-WKRWKWWKR-OH | 6.6 | 0.25
H-WRWWKWWRR-OH | 6.64 | 0.23

Reference: ChEMBL document CHEMBL3352520, “CoMFA and CoMSIA analysis of ACE-inhibitory, antimicrobial and bitter-tasting peptides” (Eur J Med Chem, 2014)
